Results published in patent publication US20240269227A1, “CALCIUM-SENSING RECEPTOR AGONIST COMPOSITION AND APPLICATION THEREOF” (Beijing Tuo Jie Biopharmaceutical Co. Ltd., priority 2021, published 2024).
Where a SMILES comes first, the peptide text is derived from it. [ ]: non-standard residue; d: D form. The star is where a group is joined. Cys(free,S-linked) = N[C@@H](CS*)C(=O)O; dAbu = CC[C@@H](N)C(=O)O

Key:
human red blood cells = assay: Hemolytic effect on human red blood cells in vitro; conditions: compound of formula (I) at 100 μg/mL; 37° C. for 1 h; absorbance at 540 nm; FIG. 1
normal rats = assay: In vivo efficacy in a normal rat model after a single dose; design: species or system rat (Sprague Dawley); conditions: 3 mg/kg intravenous
Procedure: SPF normal adult rats (Sprague Dawley, or SD) with weight of 250-350 g were fed with normal diet in an animal room for 7 days. Rats were randomized into groups of 6, half female and half male, and numbered. The day before the start of the experiment, 540 μL of blood was collected from each rat, and the plasma parathyroid hormone levels and the serum calcium ion concentration were measured as control values before administration. […] The plasma parathyroid hormone levels were measured using the Rat Intact PTH ELISA Kit (Quidel—Immunotopics, Cat. #: 60-2500; ELISA: Enzyme-linked immunosorbent assay) according to the kit instructions. […] The absorbance at 450 nm in each well was detected within 10 min after the addition of the ELISA terminating solution, while the absorbance at 620 nm was subtracted as background. A mixture of horseradish peroxidase ELISA substrate 150 μL and ELISA terminating solution 100 μL was used as the blank control in the absorbance detection. A standard curve according to the absorbance of the reference standard was plotted, and the actual plasma parathyroid hormone concentration was calculated according to the absorbance of other samples and the standard curve. […]

[1] = tested on: rat peritoneal mast cells; assay: In vitro histamine release in rat peritoneal mast cells; assay type: cell-based; conditions: final concentration 10 μM
Procedure: To evaluate the in vitro histamine release levels induced by some of the test example compounds, rat peritoneal mast cells were collected by lavaging rat peritoneum with a lavage buffer (cold HBSS+25 mM HEPES containing heparin 5 U/mL, pH 7.4). After collection, the cells were centrifuged, and the lavage buffer was discarded. The cells were resuspended and washed twice with a stimulation buffer (HBSS+25 mM HEPES+1 mM CaCl2), pH 7.4). The cells were plated at a density of 10^5 cell/well (200 μL/well) and incubated at 37° C. for 15 min with positive control compound 48/80 (final concentration: 4 μg/mL), test example compound (final concentration: 10 μM) or vehicle control. The cells were centrifuged, and cell supernatant was collected and tested for histamine concentration according to LDN Histamine ELISA kit (BAE-1000) instructions.

| histamine release levels in rat peritoneal mast cells in vitro relative to the etelcalcetide [1] | Relative fold of histamine release in vitro ([1]; 37° C. 15 min, relative to PBS buffer) | Molecule | hemolytic effect on red blood cells (human red blood cells) | serum calcium ion levels (normal rats; FIG. 3) | plasma parathyroid hormone levels (normal rats; within 4 h, FIG. 2) |
| --- | --- | --- | --- | --- | --- |
| – | – | polyethylene glycol octyl phenyl ether | significant hemolytic effect | – | – |
| greatly reduced | 0.97 | CC[C@@H](NC(=O)[C@@H](CCCNC(=N)N)NC(=O)[C@@H](CCCNC(=N)N)NC(=O)[C@@H](CSSC[C@H](N)C(=O)O)NC(C)=O)C(=O)N[C@H](CCCNC(=N)N)C(=O)N[C@H](C)C(=O)N[C@H](CCCNC(=N)N)C(N)=O [Compound of formula (I), Ac-c(C)-r-r-(D-Abu)-r-a-r-NH2] (Ac-[dC](Cys(free,S-linked))[dR][dR][dAbu][dR][dA][dR]-NH2) | – | correspondingly reduced | completely reduced |
